Results taken from US7919488B2, “Therapeutic compounds” (Pfizer Inc., priority 2006, dated 2011).
Counter-ions that a name gives are not always drawn.

Columns and labels:
Assay type in all cases: biochemical
[1] = biological target: T1, CYP3A4 (Homo sapiens, UniProt P08684); experiment: IC50 against CYP3A4 by inhibition of testosterone metabolism in human liver microsomes; settings: 0.1 mg/mL human liver microsomes, 25 μM testosterone, 1 mM NADPH, 6-β-OH-testosterone production, eight minutes; read-out: IC50, μM (HLM, testosterone)
T1 construct: 0.1 mg/mL human liver microsomes; from tissue; host or cells: human liver microsomes
Method: 2. Determination of IC50 Against CYP3A4 by Measurement of Inhibition of Testosterone Metabolism
This assay was performed using a standard 96 well plate design. […] Quantitation of metabolite peak area ratio against an internal standard is determined by LC-MS/MS analysis. The production of 6-β-OH-testosterone from testosterone metabolism is determined after incubation for eight minutes by comparison to a standard curve generated for the metabolite
(§1) Samples were analyzed in the MRM mode using a Sciex API 3000 mass spectrometer (Applied Biosystems, Foster City, Calif.) with a Paradigm MS4 binary pump (Michrom BioResources Inc., Auburn, Calif.) and a LEAP CTC PAL autosampler (LEAP Technologies, Carrboro, N.C.). A Phenomenex Synergi, 4μ, Polar-RP, 10×2.0 mm column (Phenomenex, Torrance, Calif.) was used for separation with a mobile phase composition of: 0.1% formic acid in water (A) and: 0.1% formic acid in methanol (B). The following gradient was used: […]
(§2) The sample injection volume was 10 μL and flow was split post-column with 0.4 mL/min going to the mass spectrometer. Analysis was performed using the following API 3000 mass spectrometer settings: […]

[2] = biological target: T2, recombinant CYP3A4-b5 enzyme (Baculosomes®) (Homo sapiens, UniProt P08684); experiment: Kiapp against recombinant CYP3A4 enzyme (Baculosomes), BFC substrate; settings: recombinant CYP3A4-b5 (Invitrogen), 5 uM BFC, 200 uM NADPH, pre-incubation at least 30 minutes, pH 7.0, room temperature
T2 construct: purchased Invitrogen (Carlsbad, Calif.)
Method: 1. Determination of Compound Kiapp
A determination of the Kiapp of the compounds of the invention against recombinant CYP3A4 enzyme was performed as follows. The assay was performed in a 100 mM sodium phosphate buffer pH 7.0, 5 mM TCEP and containing 2% dimethylformamide (final concentration) upon addition of substrate and inhibitor. A typical reaction for the determination of Kiapp values was carried at room temperature in a solid black Costar u-bottom 96-well polypropylene plate. […] When pre-incubation was completed (˜30 min), the reaction was initiated by adding NADPH (200 uM, final concentration), and 7-benzyloxy-4-(trifluoromethyl)-coumarin (BFC) (5 uM, final concentration). The oxidation of the coumarin substrate was recorded by a 96-well plate reader POLARstar (BMG LABTECH, Offenburg, Germany).
The initial reaction velocities were measured during the first 5 min of the reaction when the release of the fluorescent product is linear with time, in the absence and in the presence of various concentrations of inhibitors.
The fluorescent substrate BFC was purchased from Sigma (St Louis, Mo.). Two commercial sources of recombinant enzymes were used in this study: recombinant CYP3A4-b5 enzyme (Baculosomes®) was purchased from Invitrogen (Carlsbad, Calif.) and the recombinant CYP3A4+b5 enzyme (Supersomes®) was purchased from BD Biosciences (Woburn, Mass.).

[3] = biological target: T1, CYP3A4; experiment: IC50 against CYP3A4 by inhibition of midazolam metabolism in human liver microsomes; settings: 0.1 mg/mL human liver microsomes, 2 μM midazolam, 1 mM NADPH, 1-hydroxymidazolam production, eight minutes; read-out: IC50, μM (HLM, midazolam)
Method: 3. Determination of IC50 Against CYP3A4 by Measurement of Inhibition of Midazolam Metabolism
This assay was performed using a standard 96 well plate design. […] The incubation substrate mix contains 2 μM midazolam, 0.1 mg/mL human liver microsomes, 1 mM NADPH, and potassium phosphate buffer (100 mM, pH 7.4). Quantitation of metabolite peak area ratio against internal standard is determined by LC-MS/MS analysis. The production of 1-hydroxymidazolam from midazolam metabolism is determined after incubation for eight minutes by comparison to a standard curve generated for the metabolite.
as §1, §2

T1 sequence (P08684 whole entry): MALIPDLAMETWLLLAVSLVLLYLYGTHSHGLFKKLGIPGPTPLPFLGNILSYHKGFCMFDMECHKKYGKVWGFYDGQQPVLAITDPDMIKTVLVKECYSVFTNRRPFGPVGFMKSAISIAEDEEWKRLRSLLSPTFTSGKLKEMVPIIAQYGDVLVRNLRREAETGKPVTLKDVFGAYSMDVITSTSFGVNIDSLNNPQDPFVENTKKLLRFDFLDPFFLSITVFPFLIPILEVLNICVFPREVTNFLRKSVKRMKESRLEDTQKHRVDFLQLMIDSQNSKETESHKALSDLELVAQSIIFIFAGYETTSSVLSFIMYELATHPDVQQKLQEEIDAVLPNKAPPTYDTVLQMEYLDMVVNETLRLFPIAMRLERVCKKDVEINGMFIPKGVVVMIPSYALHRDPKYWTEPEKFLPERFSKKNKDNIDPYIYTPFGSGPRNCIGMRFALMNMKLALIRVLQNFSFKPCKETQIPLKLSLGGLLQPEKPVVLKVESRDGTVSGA
T2 sequence (P08684 whole entry): as above

Compound | IC50 [1] | Ki [2] | IC50 [3]
OCCn1nc(Cc2ccc(F)cc2)cc1-c1ccncc1 [Example 30, 2-[3-(4-fluorobenzyl)-5-pyridin-4-yl-1H-pyrazol-1-yl]ethanol] | 0.446 µM | 0.646 µM | 0.773 µM
O=C(Cn1nc(-c2c[nH]cn2)cc1Cc1ccc(F)cc1)N1CCC[C@@H](O)C1 [Example 40, (3R)-1-{[5-(4-fluorobenzyl)-3-(1H-imidazol-4-yl)-1H-pyrazol-1-yl]acetyl}piperidin-3-ol] | > 0.75 µM | > 1 µM | 0.446 µM
CC(O)Cn1nc(-c2ccncc2)cc1Cc1ccc(F)cc1 (stereo not drawn) [Example 52, 1-[5-(4-fluorobenzyl)-3-pyridin-4-yl-1H-pyrazol-1-yl]propan-2-ol] | 0.056 µM | 0.175 µM | 0.071 µM
O=C(Cn1nc(-c2ccncc2)cc1Cc1ccc(F)cc1)NC1CCC1 [Example 53, N-cyclobutyl-2-[5-(4-fluorobenzyl)-3-pyridin-4-yl-1H-pyrazol-1-yl]acetamide] | 0.095 µM | 0.034 µM | 0.028 µM
CC(C)(N)CNC(=O)Cn1nc(-c2ccncc2)cc1Cc1ccc(F)cc1 [Example 57, N-(2-amino-2-methylpropyl)-2-[5-(4-fluorobenzyl)-3-pyridin-4-yl-1H-pyrazol-1-yl]acetamide] | 0.062 µM | 0.124 µM | 0.064 µM
Cc1noc(Cn2nc(-c3ccncc3)cc2Cc2ccc(F)cc2)n1 [Example 59, 4-{5-(4-fluorobenzyl)-1-[(3-methyl-1,2,4-oxadiazol-5-yl)methyl]-1H-pyrazol-3-yl}pyridine] | 0.0665 µM | 0.142 µM | 0.0944 µM
O=C(Cn1nc(-c2ccncc2)cc1Cc1ccc(F)cc1)N1CCNCC1 [Example 62, 1-{[5-(4-fluorobenzyl)-3-pyridin-4-yl-1H-pyrazol-1-yl]acetyl}piperazine] | 0.111 µM | 0.604 µM | 0.047 µM
C[C@@H](O)CNC(=O)Cn1nc(-c2ccncc2)cc1Cc1ccc(F)cc1 [Example 63, 2-[5-(4-fluorobenzyl)-3-pyridin-4-yl-1H-pyrazol-1-yl]-N-[(2R)-2-hydroxypropyl]acetamide] | 0.048 µM | 0.178 µM | 0.04 µM
N[C@@H]1CCN(C(=O)Cn2nc(-c3ccncc3)cc2Cc2ccc(F)cc2)C1 [Example 65, (3R)-1-{[5-(4-fluorobenzyl)-3-pyridin-4-yl-1H-pyrazol-1-yl]acetyl}pyrrolidin-3-amine] | 0.134 µM | 0.673 µM | 0.059 µM
O=C(CCN1CCOCC1)N1CC(n2nc(-c3ccncc3)cc2Cc2ccc(F)cc2)C1 [Example 67, 4-(3-{3-[5-(4-fluorobenzyl)-3-pyridin-4-yl-1H-pyrazol-1-yl]azetidin-1-yl}-3-oxopropyl)morpholine] | 0.052 µM | 0.074 µM | 0.042 µM
O=C(c1ncccn1)N1CC(n2nc(-c3ccncc3)cc2Cc2ccc(F)cc2)C1 [Example 68, 2-({3-[5-(4-fluorobenzyl)-3-pyridin-4-yl-1H-pyrazol-1-yl]azetidin-1-yl}carbonyl)pyrimidine] | 0.081 µM | 0.137 µM | 0.091 µM

Stronger by IC50 [1], values ahead:

IC50 [1] | Ki [2] | IC50 [3] | Compound
< 0.012 µM | 0.0568 µM | 0.045 µM | Fc1ccc(Cc2cc(-c3ccncc3)nn2Cc2nc(-c3ncccn3)no2)cc1 [Example 25, 2-(5-{[5-(4-fluorobenzyl)-3-pyridin-4-yl-1H-pyrazol-1-yl]methyl}-1,2,4-oxadiazol-3-yl)pyrimidine]
0.021 µM | 0.12 µM | 0.086 µM | CN(C)C(=O)c1noc(Cn2nc(-c3ccncc3)cc2Cc2ccc(F)cc2)n1 [Example 27, 5-{[5-(4-fluorobenzyl)-3-pyridin-4-yl-1H-pyrazol-1-yl]methyl}-N,N-dimethyl-1,2,4-oxadiazole-3-carboxamide (maleic acid salt)]
0.0305 µM | 0.608 µM | 0.0792 µM | Cc1nnc(Cn2nc(-c3ccncc3)cc2Cc2ccc(F)cc2)o1 [Example 28, 4-{5-(4-fluorobenzyl)-1-[(5-methyl-1,3,4-oxadiazol-2-yl)methyl]-1H-pyrazol-3-yl}pyridine]
0.0225 µM | 0.105 µM | 0.0466 µM | COCCn1nc(-c2ccncc2)cc1Cc1ccc(F)cc1 [Example 31, 4-(5-(4-fluorobenzyl)-1-(2-methoxyethyl)-1H-pyrazol-3-yl)pyridine]
0.015 µM | 0.12 µM | 0.061 µM | OCCCn1nc(-c2ccncc2)cc1Cc1ccc(F)cc1 [Example 32, 3-(5-(4-fluorobenzyl)-3-(pyridin-4-yl)-1H-pyrazol-1-yl)propan-1-ol]
< 0.012 µM | 0.0085 µM | < 0.012 µM | CC(C)(CN1CCOCC1)NC(=O)Cn1nc(-c2ccncc2)cc1Cc1ccc(F)cc1 [Example 54, N-(1,1-dimethyl-2-morpholin-4-ylethyl)-2-[5-(4-fluorobenzyl)-3-pyridin-4-yl-1H-pyrazol-1-yl]acetamide]
< 0.012 µM | 0.101 µM | 0.044 µM | O=C(Cn1nc(-c2ccncc2)cc1Cc1ccc(F)cc1)NCCN1CCOCC1 [Example 55, 2-[5-(4-fluorobenzyl)-3-pyridin-4-yl-1H-pyrazol-1-yl]-N-(2-morpholin-4-ylethyl)acetamide]
< 0.012 µM | 0.0303 µM | < 0.012 µM | O=C(Cn1nc(-c2ccncc2)cc1Cc1ccc(F)cc1)N1CCN(c2ncccn2)CC1 [Example 56, 2-(4-{[5-(4-fluorobenzyl)-3-pyridin-4-yl-1H-pyrazol-1-yl]acetyl}piperazin-1-yl)pyrimidine]
0.027 µM | 0.103 µM | 0.043 µM | CC(C)NC(=O)Cn1nc(-c2ccncc2)cc1Cc1ccc(F)cc1 [Example 58, 2-[5-(4-fluorobenzyl)-3-pyridin-4-yl-1H-pyrazol-1-yl]-N-isopropylacetamide]
0.032 µM | 0.0765 µM | 0.02 µM | CC(C)(O)CNC(=O)Cn1nc(-c2ccncc2)cc1Cc1ccc(F)cc1 [Example 60, 2-[5-(4-fluorobenzyl)-3-pyridin-4-yl-1H-pyrazol-1-yl]-N-(2-hydroxy-2-methylpropyl)acetamide]
0.038 µM | 0.134 µM | 0.016 µM | CN1CCN(C(=O)Cn2nc(-c3ccncc3)cc2Cc2ccc(F)cc2)CC1 [Example 61, 1-{[5-(4-fluorobenzyl)-3-pyridin-4-yl-1H-pyrazol-1-yl]acetyl}-4-methylpiperazine]
0.032 µM | 0.185 µM | 0.028 µM | C[C@H](O)CNC(=O)Cn1nc(-c2ccncc2)cc1Cc1ccc(F)cc1 [Example 64, 2-[5-(4-fluorobenzyl)-3-pyridin-4-yl-1H-pyrazol-1-yl]-N-[(2S)-2-hydroxypropyl]acetamide]
0.0203 µM | 0.18 µM | 0.0555 µM | NC(=O)c1noc(Cn2nc(-c3ccncc3)cc2Cc2ccc(F)cc2)n1 [Example 69, 5-{[5-(4-fluorobenzyl)-3-pyridin-4-yl-1H-pyrazol-1-yl]methyl}-1,2,4-oxadiazole-3-carboxamide]
< 0.012 µM | 0.0238 µM | 0.019 µM | Fc1ccc(Cc2cc(-c3ccncc3)nn2Cc2nc(N3CCOCC3)no2)cc1 [Example 70, 4-(5-{[5-(4-fluorobenzyl)-3-pyridin-4-yl-1H-pyrazol-1-yl]methyl}-1,2,4-oxadiazol-3-yl)morpholine]
0.026 µM | 0.226 µM | 0.026 µM | CN(C)[C@@H]1CCN(C(=O)Cn2nc(-c3ccncc3)cc2Cc2ccc(F)cc2)C1 [Example 72, (3R)-1-{[5-(4-fluorobenzyl)-3-pyridin-4-yl-1H-pyrazol-1-yl]acetyl}-N,N-dimethylpyrrolidin-3-amine]
